Assay results taken from patent publication US20130196984A1, “3-AMINO-5-PHENYL-56-DIHYDRO-2H-[1,4]OXAZINES” (Siena Biotech S.p.A., priority 2009, published 2013).
Structures can show the parent of a compound that is named as a salt.

Columns and labels:
BACE2 [1] = target: T1, BACE2 (Rattus norvegicus, UniProt Q6IE75); test: Assay for BACE inhibition by measuring cellular TMEM27 cleavage; type: cell-based; conditions: INS-TMEM27 (INS1e-derived) cells, ELISA of shed human TMEM27 in supernatant;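 also: inhibitor added 2 h before doxycycline-induced hTMEM27 expression, supernatant collected after further 46 h, endogenous BACE2 activity read as reduced TMEM27 shedding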
T1 construct: endogenous cellular BACE2 in the Ins1e rat cell line; endogenous in cells; host or cells: INS-TMEM27 (INS1e-derived rat cell line with doxycycline-inducible full-length hTMEM27)
T1 sequence (Q6IE75 63-514): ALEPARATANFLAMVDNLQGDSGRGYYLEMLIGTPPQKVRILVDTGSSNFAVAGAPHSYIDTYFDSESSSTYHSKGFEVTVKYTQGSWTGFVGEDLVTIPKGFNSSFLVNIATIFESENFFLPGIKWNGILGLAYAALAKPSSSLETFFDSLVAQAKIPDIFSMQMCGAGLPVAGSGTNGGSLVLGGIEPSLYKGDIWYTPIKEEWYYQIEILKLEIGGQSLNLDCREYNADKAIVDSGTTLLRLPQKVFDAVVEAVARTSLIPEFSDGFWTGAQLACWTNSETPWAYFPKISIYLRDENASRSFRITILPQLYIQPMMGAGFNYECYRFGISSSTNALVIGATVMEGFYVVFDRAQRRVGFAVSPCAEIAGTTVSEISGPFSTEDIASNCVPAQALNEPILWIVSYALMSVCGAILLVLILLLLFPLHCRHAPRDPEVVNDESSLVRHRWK

BACE1 [2] = target: T2, BACE1 (Homo sapiens, UniProt P56817); test: Cellular Abeta-lowering assay; type: cell-based; design: endogenous in cells; host or cells: HEK293 stably transfected with human APP695 wt; conditions: HEK293 cells stably transfected with human APP wt (APP695), Aβ40 ELISA of supernatant after 18-20 hrs
BACE2 [3] = target: T3, BACE2 (Homo sapiens, UniProt Q9Y5Z0); test: Assay A: binding studies using SPR based methods, immobilised BACE2; conditions: CM5 chip, immobilised BACE2 enzyme ectodomain, acetate buffer pH 4.6, 4% DMSO
T3 construct: BACE2 enzyme ectodomain (derived from plasmid “pET17b-T7-hu proBACE2”); T7 (N); made in house
T3 sequence (Q9Y5Z0 63-473 limits assumed): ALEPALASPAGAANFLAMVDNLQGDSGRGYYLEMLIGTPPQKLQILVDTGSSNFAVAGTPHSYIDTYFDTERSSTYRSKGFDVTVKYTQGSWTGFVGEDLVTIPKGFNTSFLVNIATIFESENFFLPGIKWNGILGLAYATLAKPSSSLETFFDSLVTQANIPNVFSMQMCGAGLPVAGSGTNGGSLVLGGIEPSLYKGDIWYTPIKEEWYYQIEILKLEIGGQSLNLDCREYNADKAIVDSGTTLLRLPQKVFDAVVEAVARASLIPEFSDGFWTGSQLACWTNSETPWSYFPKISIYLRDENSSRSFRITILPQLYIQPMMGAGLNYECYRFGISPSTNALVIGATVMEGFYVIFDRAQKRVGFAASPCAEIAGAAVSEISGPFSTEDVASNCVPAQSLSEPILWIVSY

BACE1 [4] = target: T2, BACE1; test: Assay A: binding studies using SPR based methods, immobilised BACE1; design: 6his-tagged full length BACE 1 expressed in SF9 cells; 6His; made in house; host or cells: SF9 insect cells; conditions: CM5 chip, immobilised 6his-tagged full length BACE 1, acetate buffer pH 4.6, 4% DMSO;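 also: KD from a 1:1 kinetic fit (koff/kon) of real-time association and dissociation curves, or for fast binders from end-of-association equilibrium responses plotted against log concentration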

T2 sequence (P56817 46-501): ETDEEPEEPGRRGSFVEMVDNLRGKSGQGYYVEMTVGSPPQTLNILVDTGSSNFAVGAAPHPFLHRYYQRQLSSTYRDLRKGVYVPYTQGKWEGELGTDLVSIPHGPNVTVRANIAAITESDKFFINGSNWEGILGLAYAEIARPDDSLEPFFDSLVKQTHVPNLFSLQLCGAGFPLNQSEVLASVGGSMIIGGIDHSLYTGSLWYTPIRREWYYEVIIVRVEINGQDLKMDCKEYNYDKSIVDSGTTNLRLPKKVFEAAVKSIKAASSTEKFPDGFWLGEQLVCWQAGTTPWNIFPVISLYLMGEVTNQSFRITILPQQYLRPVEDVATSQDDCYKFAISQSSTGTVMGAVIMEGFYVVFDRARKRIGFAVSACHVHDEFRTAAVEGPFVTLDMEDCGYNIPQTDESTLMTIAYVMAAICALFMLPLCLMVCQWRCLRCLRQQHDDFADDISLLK

Structure (SMILES)	IC50 (BACE2 [1])	IC50 (BACE1 [2])	Kd (BACE2 [3])	Kd (BACE1 [4])
Cc1nc(C(=O)Nc2ccc(F)c([C@]3(C)COCC(N)=N3)c2)co1 [Example 39, 2-methyl-oxazole-4-carboxylic acid [3-((R)-5-amino-3-methyl-3,6-dihydro-2H-[1,4]oxazin-3-yl)-4-fluoro-phenyl]-amide]	130 nM	28 nM	8 nM	45 nM
C[C@@]1(c2cc(NC(=O)c3ccn(C(F)F)n3)ccc2F)COCC(N)=N1 [Example 40, 1-difluoromethyl-1H-pyrazole-3-carboxylic acid [3-((R)-5-amino-3-methyl-3,6-dihydro-2H-[1,4]oxazin-3-yl)-4-fluoro-phenyl]-amide]	2 nM	13 nM	2 nM	15 nM
C[C@@]1(c2cc(NC(=O)c3ncc(F)cc3F)ccc2F)COCC(N)=N1 [Example 41, 3,5-difluoro-pyridine-2-carboxylic acid [3-((R)-5-amino-3-methyl-3,6-dihydro-2H-[1,4]oxazin-3-yl)-4-fluoro-phenyl]-amide]	4 nM	26 nM	6 nM	54 nM
Cn1cc(Cl)c(C(=O)Nc2ccc(F)c([C@]3(C)COCC(N)=N3)c2)n1 [Example 43, 4-chloro-1-methyl-1H-pyrazole-3-carboxylic acid [3-((R)-5-amino-3-methyl-3,6-dihydro-2H-[1,4]oxazin-3-yl)-4-fluoro-phenyl]-amide]	13 nM	79 nM	5 nM	85 nM
Cc1ccsc1C(=O)Nc1ccc(F)c([C@]2(C)COCC(N)=N2)c1 [Example 44, 3-methyl-thiophene-2-carboxylic acid [3-((R)-5-amino-3-methyl-3,6-dihydro-2H-[1,4]oxazin-3-yl)-4-fluoro-phenyl]-amide]	310 nM	470 nM	43 nM	1820 nM
C[C@@]1(c2cc(NC(=O)c3ncoc3-c3ccccc3)ccc2F)COCC(N)=N1 [Example 45, 5-phenyl-oxazole-4-carboxylic acid [3-((R)-5-amino-3-methyl-3,6-dihydro-2H-[1,4]oxazin-3-yl)-4-fluoro-phenyl]-amide]	620 nM	760 nM	3020 nM	3940 nM
C[C@@]1(c2cc(NC(=O)c3sccc3Cl)ccc2F)COCC(N)=N1 [Example 46, 3-chloro-thiophene-2-carboxylic acid [3-((R)-5-amino-3-methyl-3,6-dihydro-2H-[1,4]oxazin-3-yl)-4-fluoro-phenyl]-amide]	720 nM	1350 nM	629 nM	10800 nM
C[C@@]1(c2cc(NC(=O)c3ncccc3OCC(F)(F)F)ccc2F)COCC(N)=N1 [Example 48, 3-(2,2,2-trifluoro-ethoxy)-pyridine-2-carboxylic acid [3-((R)-5-amino-3-methyl-3,6-dihydro-2H-[1,4]oxazin-3-yl)-4-fluoro-phenyl]-amide]	52 nM	350 nM	115 nM	1200 nM
CC1(C)OCC(N)=N[C@]1(C)c1cc(NC(=O)c2ccc(Cl)cn2)ccc1F [Example 49, 5-chloro-pyridine-2-carboxylic acid [3-((R)-5-amino-2,2,3-trimethyl-3,6-dihydro-2H-[1,4]oxazin-3-yl)-4-fluoro-phenyl]-amide]	66 nM	4 nM	22 nM	15 nM
CC1(C)OCC(N)=N[C@]1(C)c1cc(NC(=O)c2ccc(OCC(F)(F)F)cn2)ccc1F [Example 50, 5-(2,2,2-trifluoro-ethoxy)-pyridine-2-carboxylic acid [3-((R)-5-amino-2,2,3-trimethyl-3,6-dihydro-2H-[1,4]oxazin-3-yl)-4-fluoro-phenyl]-amide]	1400 nM	39 nM	2100 nM	900 nM
CC1(C)OC[C@@](C)(c2cccc(NC(=O)c3ccc(Cl)cn3)c2)N=C1N [Example 51, 5-chloro-pyridine-2-carboxylic acid [3-((R)-5-amino-3,6,6-trimethyl-3,6-dihydro-2H-[1,4]oxazin-3-yl)-phenyl]-amide]	5 nM	14 nM	2 nM	22 nM
C[C@@]1(c2cc(NC(=O)c3ccc(C#N)cn3)ccc2F)COCC(N)=N1 [Example 72, 5-cyano-pyridine-2-carboxylic acid [3-((R)-5-amino-3-methyl-3,6-dihydro-2H-[1,4]oxazin-3-yl)-4-fluoro-phenyl]-amide hydrochloride]	39 nM	3 nM	25 nM	16 nM
C[C@@]1(c2cc(NC(=O)c3ccc(OC(F)F)cn3)ccc2F)COCC(N)=N1 [Example 73, 5-difluoromethoxy-pyridine-2-carboxylic acid [3-((R)-5-amino-3-methyl-3,6-dihydro-2H-[1,4]oxazin-3-yl)-4-fluoro-phenyl]-amide hydrochloride]	105 nM	4 nM	51 nM	9 nM
C[C@@]1(c2cc(NC(=O)c3ncc(Cl)cc3F)ccc2F)COCC(N)=N1 [Example 74, 5-Chloro-3-fluoro-pyridine-2-carboxylic acid [3-((R)-5-amino-3-methyl-3,6-dihydro-2H-[1,4]oxazin-3-yl)-4-fluoro-phenyl]-amide hydrochloride]	1350 nM	4 nM	2 nM	10 nM
C[C@@]1(c2cc(NC(=O)c3ncco3)ccc2F)COCC(N)=N1 [Example 80, oxazole-2-carboxylic acid [3-((R)-5-amino-3-methyl-3,6-dihydro-2H-[1,4]oxazin-3-yl)-4-fluoro-phenyl]-amide]	84 nM	700 nM	45 nM	2270 nM
C[C@@]1(c2cc(NC(=O)c3cnc(C(F)(F)F)cn3)ccc2F)COCC(N)=N1 [Example 81, 5-trifluoromethyl-pyrazine-2-carboxylic acid [3-((R)-5-amino-3-methyl-3,6-dihydro-2H-[1,4]oxazin-3-yl)-4-fluoro-phenyl]-amide formate]	210 nM	47 nM	256 nM	102 nM
C[C@@]1(c2cc(NC(=O)c3cnc(C(F)(F)F)cn3)ccc2F)COCC(N)=N1 [Example 82, 5-trifluoromethyl-pyrazine-2-carboxylic acid [3-((R)-5-amino-3-methyl-3,6-dihydro-2H-[1,4]oxazin-3-yl)-4-fluoro-phenyl]-amide formate]	140 nM	46 nM	113 nM	129 nM
C[C@@]1(c2cc(NC(=O)C(F)(F)C(F)F)ccc2F)COCC(N)=N1 [Example 83, N-[3-((R)-5-amino-3-methyl-3,6-dihydro-2H-[1,4]oxazin-3-yl)-4-fluoro-phenyl]-2,2,3,3-tetrafluoro-propionamide formate]	130 nM	300 nM	276 nM	916 nM
COCC(=O)Nc1ccc(F)c([C@]2(C)COCC(N)=N2)c1 [Example 84, N-[3-((R)-5-amino-3-methyl-3,6-dihydro-2H-[1,4]oxazin-3-yl)-4-fluoro-phenyl]-2-methoxy-acetamide formate]	83 nM	140 nM	77 nM	261 nM
CC(C)C(=O)Nc1ccc(F)c([C@]2(C)COCC(N)=N2)c1 [Example 88, N-[3-((R)-5-amino-3-methyl-3,6-dihydro-2H-[1,4]oxazin-3-yl)-4-fluoro-phenyl]-isobutyramide formate]	560 nM	2760 nM	3450 nM	> 10000 nM
CC(F)(F)C(=O)Nc1ccc(F)c([C@]2(C)COCC(N)=N2)c1 [Example 90, N-[3-((R)-5-amino-3-methyl-3,6-dihydro-2H-[1,4]oxazin-3-yl)-4-fluoro-phenyl]-2,2-difluoro-propionamide formate]	1220 nM	220 nM	150 nM	148 nM
